# Columns and labels:
# [1] = Largest Soluble Hydrocarbon (LSH); format: physicochemical; details: test material to hydrocarbon ratio approximately 1:1 to 1:2 by weight, no haze to the naked eye
# Description: Largest Soluble Hydrocarbon (LSH): The LSH of each hydrofluorothioether and competitive example was determined by mixing the compound with hydrocarbons of varying molecular weight (CnH2n+2, where n=9 to 24) in a test material to hydrocarbon ratio of approximately 1:1 to 1:2 by weight at room temperature (23° C.) and at 50° C. […] A larger value of n is interpreted herein to indicate a greater ability of the hydrofluorothioether to clean hydrocarbons.
# Table 2 summarizes results of Largest Soluble Hydrocarbon (LSH) testing of Examples 1-3 and Comparative Examples CE1-CE5.
# [2] = Atmospheric lifetime from relative rate studies with hydroxyl radicals; format: physicochemical; details: rate of reaction with hydroxyl radicals relative to CH3Cl reference
# Description: Atmospheric Lifetime and Global Warming Potential (GWP): The atmospheric lifetime of each test material was determined from relative rate studies utilizing chloromethane (CH3Cl) as a reference compound. The pseudo-first order reaction rates of the reference compound and the test compound with hydroxyl radicals (·OH) was determined in a laboratory chamber system. The atmospheric lifetime of the reference compound is documented in the literature. Based on this value and the pseudo-first order rates measured in the chamber experiments, the atmospheric lifetime for each specimen was calculated from the reaction rates for the test compound relative to the reference compounds and the reported lifetime of the reference compounds as shown below:
# [formula] where τx is the atmospheric lifetime of test material, τr is the atmospheric lifetime of the reference compound, and kx and kr are the rate constants for the reaction of hydroxyl radical with test material and the reference compound, respectively. The concentrations of gases in the test chamber were quantified by Fourier transform infrared spectroscopy (FTIR). The measured atmospheric lifetime value of each fluid was subsequently used for the GWP calculation.
# [3] = tested on: rats; experiment: Repeat dose inhalation toxicity in rats; format: in vivo; details: 3 male rats, 750 ppm, 6-hour/day, five day repeated exposure
# Description: Toxicity: The repeat dose inhalation toxicity in rats was determined by a five day repeated exposure of 3 male rats to 750 ppm of the test compound for 6 hours per day.
# The repeat dose inhalation toxicity in rats was determined by a five day repeated exposure of 3 male rats to 750 ppm (6-hour/day) of Example 2.
LSH (n in CnH2n+2) ([1]; 23° C.),LSH (n in CnH2n+2) ([1]; 50° C.),SMILES,Atmospheric Lifetime [2] [years],"clinical signs of toxicity, body weights, organ weights [3]","histopathological effects in respiratory tract, liver, kidneys [3]"
9,9,"COC(F)(F)C(F)(F)C(F)(F)C(F)(F)F [CE1, n-C4F9—O—CH3]",–,–,–
10,10,"COC(F)(F)C(F)(F)C(F)(F)F [CE2, CF3(CF2)2—O—CH3]",5.0,–,–
14,17,FC(F)(F)CC(F)(F)CCl [CE5],–,–,–

SMILES,LSH (n in CnH2n+2) ([1]; 23° C.),LSH (n in CnH2n+2) ([1]; 50° C.),Atmospheric Lifetime [2] [years],"clinical signs of toxicity, body weights, organ weights [3]","histopathological effects in respiratory tract, liver, kidneys [3]"
"CSC(F)(F)C(F)(F)C(F)(F)C(F)(F)F [Example 1, n-C4F9—S—CH3]",18,21,–,–,–
"CSC(F)(C(F)(F)F)C(F)(F)F [Example 2, perfluoroisopropyl methyl thioether]",18,>23,0.01,"no adverse clinical signs of toxicity, changes in body weights, or organ weights (lungs, liver, and kidneys)","No adverse histopathological effects were observed in the respiratory tract, liver, or kidneys"

# Source: US12227721B2, “Hydrofluorothioethers and methods of using same” (3M INNOVATIVE PROPERTIES COMPANY, priority 2020, dated 2025)
